Results taken from US20090062369A1, “USE OF SECRETORY PHOSPHOLIPASE A2 (SPLA2) INHIBITORS TO DECREASE SPLA2 LEVELS” (priority 2007, published 2009).

Tested on: serum sPLA2
Assay: Effect of twice-a-day oral A-002 on serum sPLA2 levels in subjects with stable coronary artery disease (Example 6)
Assay type: in vivo, human
Procedure: The protocol for preparing standard curve, test, and quality control samples for use in the assay disclosed herein is set forth in Example 5. Samples are prepared according to this protocol, then loaded in duplicate onto a plate (Cayman catalog no. 485002 or equivalent) that has been pre-coated with a monoclonal sPLA2 antibody (“capture antibody”) that specifically binds sPLA2. In certain embodiments, the capture antibody may interact with a specific form of sPLA2, such as for example sPLA2 type IIA.
sPLA2 acetylcholinesterase:Fab′ conjugate (AChE:Fab′) (“conjugate”) (Cayman catalog no. 485000 or equivalent) is reconstituted in EIA buffer (Cayman catalog no. 400060 or equivalent). Cayman EIA buffer is 1M phosphate, pH 7.0, 1% BSA, 4M NaCl, 10 mM EDTA, and 0.1% sodium azide. Reconstituted conjugate is added to each well of the plate. The conjugate binds a different sPLA2 epitope than the capture antibody, allowing the capture antibody and the conjugate to form a “sandwich” that is immobilized on the plate. Excess reagents are washed away, and the plate is covered and incubated overnight at 2-8° C.
Prior to development, the wells are washed five to six times with wash buffer (Cayman catalog no. 400062 or equivalent). To develop the plate, Ellman's Reagent (Cayman catalog no. 400050 or equivalent) is reconstituted in water and added to each well according to manufacturer instructions. The reconstituted Ellman's Reagent must be used the same day it is prepared because it is unstable. Ellman's Reagent contains an AChE substrate. Specifically, Ellman's Reagent contains acetylthiocholine and 5,5′-dithio-bis-(2-nitrobenzoic acid). Hydrolysis of acetylthiocholine by acetylcholinesterase produces thiocholine, which reacts with 5,5′-dithio-bis-(2-nitrobenzoic acid) to produce 5-thio-2-nitrobenzoic acid. 5-thio-2-nitrobenzoic acid has a strong absorbance at 412 nm. The intensity of absorbance at this wavelength is directly proportional to the concentration of bound conjugate, which is in turn is directly proportional to the concentration of sPLA2 present (Absorbance a [AChE:Fab′ conjugate] α [sPLA2]). During the development step, the plate is shaken, preferably in the dark. In certain embodiments the development time for the assay is 0.5 to 3 hours, preferably 1 to 1.5 hours. At the end of the development period, the high sPLA2 standards should have greater yellow color development than the zero standards. Absorbance of each well is measured at 400-420 nm using a micro-well plate reader. In certain embodiments, absorbance is measured at about 405 nm.
Absorbance readings for duplicate wells are averaged, and the relative standard deviation and % CV are calculated. Standard curve data are used to generate a four parameter curve, and quality control and test samples are measured against the appropriate standard curve (i.e., the standard curve with the same serum content). In order for a test to be considered valid, variation between duplicate wells should be no more than about 25%, and negative controls (blanks) for each standard curve should have a mean absorbance of less than about 0.3.
The method disclosed herein for measuring sPLA2 levels in serum was utilized to determine the effect of administering certain sPLA2 inhibitors on sPLA2 levels in 84 human subjects. The subjects included 24 subjects with diabetes, 32 subjects with metabolic syndrome, and 75 subjects receiving statin treatment. Subjects were administered the sPLA2 inhibitor A-002, a prodrug form of A-001, twice a day at varying dosages from 50 to 500 mg. The structures of A-002and A-001 are set forth below. At two weeks and four weeks after the first administration, sPLA2 levels were measured and compared to pre-administration baseline levels.
84 subjects with stable coronary artery disease were randomized to receive placebo or A-002 via oral administration twice a day over a four week administration period. […]

[1] = A-002 (500 mg), non-statin subgroup of ITT population
[2] = A-002 Total (all dose groups), ITT subjects exhibiting at least 3 out of 5 metabolic syndrome criteria
[3] = A-002 Total (all dose groups), non-statin subgroup of ITT population
[4] = Total (all doses), ITT population
[5] = Total (all doses), diabetes subgroup of ITT population
[6] = Total (all doses), non-diabetes subgroup of ITT population
[7] = Total (all doses), statin subgroup of ITT population

Compound: CCc1c(C(=O)C(N)=O)c2c(OCC(=O)OC)cccc2n1Cc1ccccc1 [A-002, [[3-(2-Amino-1,2-dioxoethyl)-2-ethyl-1-(phenylmethyl)-1H-indol-4-yl]oxy]acetic acid methyl ester]
- sPLA2 level, Week 4, Range (A-002 (500 mg), ITT subjects exhibiting at least 3 out of 5 metabolic syndrome criteria): 0.05 to 0.10 ng/mL
- sPLA2 level, Baseline, Mean [1]: 2.30 ng/mL
- sPLA2 level, Baseline, Median [1]: 2.30 ng/mL
- sPLA2 level, Baseline, Range [1]: 1.80 to 2.80 ng/mL
- sPLA2 level, Change from baseline at week 2, Mean [1]: -2.25 ng/mL
- sPLA2 level, Change from baseline at week 2, Median [1]: -2.25 ng/mL
- sPLA2 level, Change from baseline at week 2, Range [1]: -2.75 to -1.75 ng/mL
- sPLA2 level, Change from baseline at week 4, Mean [1]: -2.08 ng/mL
- sPLA2 level, Change from baseline at week 4, Median [1]: -2.08 ng/mL
- sPLA2 level, Change from baseline at week 4, Range [1]: -2.40 to -1.75 ng/mL
- sPLA2 level, Week 2, Mean [1]: 0.05 ng/mL
- sPLA2 level, Week 2, Median [1]: 0.05 ng/mL
- sPLA2 level, Week 2, Range [1]: 0.05 to 0.05 ng/ml
- sPLA2 level, Week 4, Mean [1]: 0.23 ng/mL
- sPLA2 level, Week 4, Median [1]: 0.23 ng/mL
- sPLA2 level, Week 4, Range [1]: 0.05 to 0.40 ng/mL
- sPLA2 level, Baseline, Mean [2]: 3.17 ng/mL
- sPLA2 level, Baseline, Median [2]: 2.70 ng/mL
- sPLA2 level, Baseline, Range [2]: 0.05 to 8.80 ng/mL
- sPLA2 level, Change from baseline at week 2, Mean [2]: -2.41 ng/mL
- sPLA2 level, Change from baseline at week 2, Median [2]: -2.45 ng/mL
- sPLA2 level, Change from baseline at week 2, Range [2]: −5.30 to +2.85 ng/ml
- sPLA2 level, Change from baseline at week 4, Mean [2]: -2.76 ng/mL
- sPLA2 level, Change from baseline at week 4, Median [2]: -2.30 ng/mL
- sPLA2 level, Change from baseline at week 4, Range [2]: -6.40 to 0.00 ng/mL
- sPLA2 level, Week 2, Mean [2]: 0.65 ng/mL
- sPLA2 level, Week 2, Median [2]: 0.30 ng/mL
- sPLA2 level, Week 2, Range [2]: 0.05 to 4.00 ng/mL
- sPLA2 level, Week 4, Mean [2]: 0.43 ng/mL
- sPLA2 level, Week 4, Median [2]: 0.25 ng/mL
- sPLA2 level, Week 4, Range [2]: 0.05 to 2.40 ng/mL
- sPLA2 level, Baseline, Mean [3]: 2.92 ng/mL
- sPLA2 level, Baseline, Median [3]: 2.80 ng/mL
- sPLA2 level, Baseline, Range [3]: 1.80 to 4.90 ng/mL
- sPLA2 level, Change from baseline at week 2, Mean [3]: -2.13 ng/mL
- sPLA2 level, Change from baseline at week 2, Median [3]: -2.00 ng/mL
- sPLA2 level, Change from baseline at week 2, Range [3]: -2.75 to -1.75 ng/mL
- sPLA2 level, Change from baseline at week 4, Mean [3]: -2.49 ng/mL
- sPLA2 level, Change from baseline at week 4, Median [3]: -2.20 ng/mL
- sPLA2 level, Change from baseline at week 4, Range [3]: -4.40 to -1.70 ng/mL
- sPLA2 level, Week 2, Mean [3]: 0.58 ng/mL
- sPLA2 level, Week 2, Median [3]: 0.48 ng/mL
- sPLA2 level, Week 2, Range [3]: 0.05 to 1.30 ng/mL
- sPLA2 level, Week 4, Mean [3]: 0.65 ng/mL
- sPLA2 level, Week 4, Median [3]: 0.50 ng/mL
- sPLA2 level, Week 4, Range [3]: 0.05 to 1.20 ng/mL
- serum sPLA2 levels (ITT population, stable coronary artery disease, A-002 50, 100, 250 or 500 mg oral twice a day, end of weeks two and four vs baseline, dose-independent): decreased serum sPLA2 levels
- sPLA2 Change from baseline at week 2, Mean [4]: -2.35 ng/mL
- sPLA2 Change from baseline at week 2, Median [4]: -2.40 ng/mL
- sPLA2 Change from baseline at week 2, Range [4]: −5.30 to +2.85 ng/ml
- sPLA2 Change from baseline at week 4, Mean [4]: -2.53 ng/mL
- sPLA2 Change from baseline at week 4, Median [4]: -2.35 ng/mL
- sPLA2 Change from baseline at week 4, Range [4]: -6.40 to 0.20 ng/mL
- sPLA2 level, Baseline, Mean [4]: 2.99 ng/mL
- sPLA2 level, Baseline, Median [4]: 2.70 ng/mL
- sPLA2 level, Baseline, Range [4]: 0.05 to 8.80 ng/mL
- sPLA2 level, Week 2, Mean [4]: 0.60 ng/mL
- sPLA2 level, Week 2, Median [4]: 0.30 ng/mL
- sPLA2 level, Week 2, Range [4]: 0.05 to 4.40 ng/mL
- sPLA2 level, Week 4, Mean [4]: 0.51 ng/mL
- sPLA2 level, Week 4, Median [4]: 0.35 ng/mL
- sPLA2 level, Week 4, Range [4]: 0.05 to 2.40 ng/mL
- sPLA2 Change from baseline at week 2, Mean [5]: -2.03 ng/mL
- sPLA2 Change from baseline at week 2, Median [5]: -2.40 ng/mL
- sPLA2 Change from baseline at week 2, Range [5]: −4.80 to +2.85 ng/ml
- sPLA2 Change from baseline at week 4, Mean [5]: -2.31 ng/mL
- sPLA2 Change from baseline at week 4, Median [5]: -1.90 ng/mL
- sPLA2 Change from baseline at week 4, Range [5]: −5.70 to +0.20 ng/ml
- sPLA2 level, Baseline, Mean [5]: 2.91 ng/mL
- sPLA2 level, Baseline, Median [5]: 2.75 ng/mL
- sPLA2 level, Baseline, Range [5]: 0.05 to 6.00 ng/mL
- sPLA2 level, Week 2, Mean [5]: 0.67 ng/mL
- sPLA2 level, Week 2, Median [5]: 0.50 ng/mL
- sPLA2 level, Week 2, Range [5]: 0.05 to 2.90 ng/mL
- sPLA2 level, Week 4, Mean [5]: 0.53 ng/mL
- sPLA2 level, Week 4, Median [5]: 0.50 ng/mL
- sPLA2 level, Week 4, Range [5]: 0.05 to 1.50 ng/mL
- sPLA2 Change from baseline at week 2, Mean [6]: -2.48 ng/mL
- sPLA2 Change from baseline at week 2, Median [6]: -2.40 ng/mL
- sPLA2 Change from baseline at week 2, Range [6]: -5.30 to -0.40 ng/mL
- sPLA2 Change from baseline at week 4, Mean [6]: -2.63 ng/mL
- sPLA2 Change from baseline at week 4, Median [6]: -2.45 ng/mL
- sPLA2 Change from baseline at week 4, Range [6]: -6.40 to -0.55 ng/mL
- sPLA2 level, Baseline, Mean [6]: 3.02 ng/mL
- sPLA2 level, Baseline, Median [6]: 2.60 ng/mL
- sPLA2 level, Baseline, Range [6]: 0.60 to 8.80 ng/mL
- sPLA2 level, Week 2, Mean [6]: 0.57 ng/mL
- sPLA2 level, Week 2, Median [6]: 0.30 ng/mL
- sPLA2 level, Week 2, Range [6]: 0.05 to 4.40 ng/mL
- sPLA2 level, Week 4, Mean [6]: 0.51 ng/mL
- sPLA2 level, Week 4, Median [6]: 0.30 ng/mL
- sPLA2 level, Week 4, Range [6]: 0.05 to 2.40 ng/mL
- sPLA2 Change from baseline at week 2, Mean [7]: -2.37 ng/mL
- sPLA2 Change from baseline at week 2, Median [7]: -2.43 ng/mL
- sPLA2 Change from baseline at week 2, Range [7]: −5.30 to +2.85 ng/ml
- sPLA2 Change from baseline at week 4, Mean [7]: -2.53 ng/mL
- sPLA2 Change from baseline at week 4, Median [7]: -2.43 ng/mL
- sPLA2 Change from baseline at week 4, Range [7]: −6.40 to +0.20 ng/ml
- sPLA2 level, Baseline, Mean [7]: 3.00 ng/mL
- sPLA2 level, Baseline, Median [7]: 2.70 ng/mL
- sPLA2 level, Baseline, Range [7]: 0.05 to 8.80 ng/mL
- sPLA2 level, Week 2, Mean [7]: 0.60 ng/mL
- sPLA2 level, Week 2, Median [7]: 0.30 ng/mL
- sPLA2 level, Week 2, Range [7]: 0.05 to 4.40 ng/mL
- sPLA2 level, Week 4, Mean [7]: 0.50 ng/mL
- sPLA2 level, Week 4, Median [7]: 0.30 ng/mL
- sPLA2 level, Week 4, Range [7]: 0.05 to 2.40 ng/mL
- sPLA2 levels compared to pre-administration baseline (all subject subpopulations (diabetic/non-diabetic, metabolic syndrome/non-metabolic syndrome, statin/non-statin), all dosages 50 to 500 mg twice a day, two and four weeks): substantial decrease in sPLA2 levels
- serum sPLA2 levels (diabetic and non-diabetic subpopulations, A-002 50-500 mg oral twice a day, weeks two and four): decrease was observed
- serum sPLA2 levels (metabolic syndrome subpopulation, A-002 50-500 mg oral twice a day, weeks two and four): decrease was observed
- serum sPLA2 levels (statin and non-statin subpopulations, A-002 50-500 mg oral twice a day, weeks two and four): decrease was observed
